In patent publication EP0683161A1, “Ester of 4-amino-5-chloro-2-methoxybenzoic acid, process for their preparation and pharmaceutical compositions containing them” (MIDY S.p.A., priority 1994, dated 1995):

How the values were obtained:
récepteurs 5-HT₄ = récepteurs 5-HT₄ (Rattus norvegicus, UniProt Q62758); test: 5-HT relaxation of carbachol-contracted rat oesophagus tunica muscularis mucosae (Baxter and Clarke method); conditions: rat oesophagus tunica muscularis mucosae contracted by carbachol; result in words only
Sequence of récepteurs 5-HT₄ (Q62758 whole entry): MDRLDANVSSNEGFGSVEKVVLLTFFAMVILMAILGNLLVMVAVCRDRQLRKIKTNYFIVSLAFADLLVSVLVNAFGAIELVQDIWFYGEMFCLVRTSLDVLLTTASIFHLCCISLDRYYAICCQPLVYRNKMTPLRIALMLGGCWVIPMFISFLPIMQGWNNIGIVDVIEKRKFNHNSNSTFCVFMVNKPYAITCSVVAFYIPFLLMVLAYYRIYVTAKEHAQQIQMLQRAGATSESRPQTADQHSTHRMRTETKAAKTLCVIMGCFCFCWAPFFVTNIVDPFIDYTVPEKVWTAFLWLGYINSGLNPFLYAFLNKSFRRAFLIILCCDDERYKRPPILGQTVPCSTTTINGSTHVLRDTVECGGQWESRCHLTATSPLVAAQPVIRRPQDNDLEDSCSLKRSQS
Text: De plus, toujours pour l'évaluation de l'activité 5-HT₄, on a soumis le composé de formule (I) à un essai sur la tunica muscolaris mucosae de l'oesophage de rat contracté par du carbacol. […] Des rats mâles Crl:CD(SD)BR (Charles River Italia) d'un poids moyen de 250 g sont sacrifiés par dislocation cervicale. Un segment d'oesophage d'environ 2 cm est prélevé au niveau intratoraxique à proximité du diaphragme. La tunica muscolaris mucosae est ensuite isolée et suspendue dans un bain pour organes isolés de 20 ml contenant une solution de Krebs en présence d'hydrocortisone (3·10⁻⁷ M) à 37°C aérée avec 95% O₂ et 5% CO₂. Le tissu est relié à un transducteur isotonique et soumis à une charge de 1 g. La préparation est incubée avec de la pargiline (10⁻⁴ M) pendant 30 minutes et lavée plusieurs fois. Après 60 minutes environ, on contracte le tissu avec des doses cumulatives de carbacol (10⁻⁶, 2·10⁻⁶, 3·10⁻⁶, 4·10⁻⁶ M); de cette manière, on obtient un tonus du tissu stable dans le temps. La 5-HT (10⁻¹⁰ et 10⁻⁶ M), qui est ajoutée cumulativement, relaxe l'oesophage grâce à l'activation des récepteurs 5-HT₄. Trois courbes de carbacol sont construites par préparation toutes les 90 minutes. Après chaque courbe, on procède au moins à 4 lavages. Aussi bien la contraction provoquée par le carbacol que les effets sur celle-ci sont identiques et peuvent être reproduits. […]

récepteur 5-HT₄ [1] = biological target: T1, récepteur 5-HT₄ (Cavia porcellus, UniProt O70528); test: 5-HT response of the electrically stimulated guinea pig ileum myenteric plexus (modified Craig and Clarke test); parameters: species or system cobayes; conditions: 30 min incubation, cumulative 5-HT curve 10⁻¹⁰ to 10⁻⁵M
T1 construct: On isole le plexus myentérique à partir de segments d'iléon de 3 cm environ; from tissue; host or cells: guinea pig ileum myenteric plexus (isolated organ bath)
T1 sequence (O70528 whole entry): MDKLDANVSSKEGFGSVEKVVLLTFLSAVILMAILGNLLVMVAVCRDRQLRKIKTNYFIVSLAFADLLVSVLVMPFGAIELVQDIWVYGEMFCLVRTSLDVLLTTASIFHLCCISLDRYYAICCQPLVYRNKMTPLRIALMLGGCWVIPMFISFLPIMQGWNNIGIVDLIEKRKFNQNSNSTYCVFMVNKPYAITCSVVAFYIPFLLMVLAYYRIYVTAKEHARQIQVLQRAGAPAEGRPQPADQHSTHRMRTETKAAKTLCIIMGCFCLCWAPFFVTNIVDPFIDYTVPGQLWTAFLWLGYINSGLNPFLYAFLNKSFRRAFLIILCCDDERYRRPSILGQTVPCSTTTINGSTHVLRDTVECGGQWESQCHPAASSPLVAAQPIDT
Text: Dans le but d'évaluer l'activité vis-à-vis du récepteur 5-HT₄, on a soumis les composés de l'invention à l'essai décrit par D.A. Craig et D.E. Clarke. (J. Pharmacol. Exp. Ther., 1990, 252: 1378-86) en lui apportant quelques modifications.
Des cobayes albinos mâles - Charles River Italia - (poids moyen de 500 g) sont sacrifiés par décapitation. On isole le plexus myentérique à partir de segments d'iléon de 3 cm environ, prélevés à 10 cm de la jonction iléooeecale; on place le plexus dans un bain de 20 ml pour organes isolés, contenant une solution de Krebs et de l'acide ascorbique à raison de 1 mg/ml. On maintient la solution, aérée au carboxygène, à la température de 37°C. Le plexus, relié à un transducteur isotonique et soumis à une charge de 0,5 g, est stimulé électriquement de façon supramaximale (fréquence 0,2 Hz, durée […]) par une électrode coaxiale au platine. La préparation est traitée avec de la phénoxybenzamine 10⁻⁷M pendant 30 minutes et, ensuite, lavée plusieurs fois. On réduit le voltage jusqu'à obtenir un effet stimulant de 50% par rapport au maximum et le plexus est ensuite stimulé par la sérotonine à raison de 3·10⁻⁷M. Après lavage et stabilisation, la préparation est prête pour l'essai des composés à activité 5-HT₄. Trois courbes cumulatives de 5-HT sont construites toutes les 60 minutes. […]

récepteur 5-HT₃ = biological target: T2, récepteur 5-HT₃ (Rattus norvegicus, UniProt P35563); test: in vitro binding to 5-HT3 sites of rat cerebral cortex, displacement of [3H] BRL 43694 (granisetron); conditions: rat cerebral cortex membranes, labelled ligand 0,5 nM
T2 construct: les sites de liaison 5-HT₃ présents dans le cortex cérébral du rat; from tissue; host or cells: rat cerebral cortex membranes
T2 sequence (P35563 24-483): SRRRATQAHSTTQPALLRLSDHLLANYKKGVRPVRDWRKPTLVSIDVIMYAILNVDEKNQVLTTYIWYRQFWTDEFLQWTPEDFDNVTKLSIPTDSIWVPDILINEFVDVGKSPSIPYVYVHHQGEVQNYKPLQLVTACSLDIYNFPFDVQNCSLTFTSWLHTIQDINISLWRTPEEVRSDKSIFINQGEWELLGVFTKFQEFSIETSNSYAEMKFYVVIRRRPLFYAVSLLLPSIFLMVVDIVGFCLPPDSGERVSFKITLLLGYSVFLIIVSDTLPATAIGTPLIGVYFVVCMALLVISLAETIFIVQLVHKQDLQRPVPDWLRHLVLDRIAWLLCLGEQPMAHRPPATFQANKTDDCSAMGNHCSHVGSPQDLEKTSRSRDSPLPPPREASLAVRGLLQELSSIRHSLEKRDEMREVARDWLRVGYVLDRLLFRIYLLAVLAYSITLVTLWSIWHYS
Experimental: Afin de tester l'affinité du composé de formule (I) relativement au récepteur 5-HT₃, on a effectué des essais de liaison in vitro en utilisant les sites de liaison 5-HT₃ présents dans le cortex cérébral du rat (G.J. Kilpatrick, B.J. Jones et M.B. Tyers, Nature, 1987; 330: 746-8) et comme ligand marqué le [³H] BRL 43694 (granisetron), un antagoniste des récepteurs 5-HT₃ puissant et spécifique, à la concentration de 0,5 nM.
La préparation des membranes et le test de liaison ont été effectués selon la méthode décrite par Nelson et Thomas (D.R. Nelson et D.R. Thomas, Biochem. Pharmacol., 1989; 38: 1693-5).
Les résultats ont été évalués avec des méthodes d'ajustement ("fitting") non linéaire "Accufit saturation", pour les études de saturation (H.A. Feldman, Analyt. Biochem., 1972; 48: 317-38) et "Accufit competition", pour les études de déplacement (H.A. Feldman, D. Rodbard et D. Levine, Analyt. Biochem., 1972; 45: 530-56).

récepteur 5-HT₄ [2] = biological target: récepteur 5-HT₄ (Homo sapiens, UniProt Q13639); test: activity of the separated cis and trans isomers at the 5-HT4 receptor (test not specified); conditions: cis and trans isomers evaluated separately
Sequence of récepteur 5-HT₄ (Homo sapiens, UniProt Q13639) (Q13639 whole entry): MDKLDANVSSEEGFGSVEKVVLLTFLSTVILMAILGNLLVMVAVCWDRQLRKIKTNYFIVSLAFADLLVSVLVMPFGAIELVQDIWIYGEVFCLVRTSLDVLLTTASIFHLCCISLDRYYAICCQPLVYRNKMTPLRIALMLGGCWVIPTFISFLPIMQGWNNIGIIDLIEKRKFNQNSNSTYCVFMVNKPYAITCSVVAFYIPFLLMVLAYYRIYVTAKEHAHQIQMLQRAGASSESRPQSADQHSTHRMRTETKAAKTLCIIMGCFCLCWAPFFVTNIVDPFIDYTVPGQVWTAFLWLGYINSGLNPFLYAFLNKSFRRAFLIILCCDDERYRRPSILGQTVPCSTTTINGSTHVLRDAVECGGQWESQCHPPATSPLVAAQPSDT

SMILES	pA₂ (antagonism of 5-HT relaxation) (récepteurs 5-HT₄)	IC₅₀, dose qui réduit de 50% la réponse de la 5-HT (récepteur 5-HT₄ [1])	déplacement du [³H] BRL 43694 (récepteur 5-HT₃)	activité vis-à-vis du récepteur 5-HT₄ (récepteur 5-HT₄ [2])
COc1cc(N)c(Cl)cc1C(=O)OCCN1CC(C)CC(C)C1 (stereo not shown) [composé de formule (I), ester 3,5-diméthylpipéridinoéthyliquede l'acide 4-amino-5-chloro-2-méthoxybenzoïque]	très efficace	quelques nanomoles	inactif	
COc1cc(N)c(Cl)cc1C(=O)OCCN1CC(C)CC(C)C1 (stereo not drawn) [isomère cis, isomère cis de l'ester 3,5-diméthylpipéridinoéthyliquede l'acide 4-amino-5-chloro-2-méthoxybenzoïque]				le plus actif
